According to patent publication US20110224297A1, “Methods of administering prostratin and structural analogs thereof” (priority 2008, published 2011):
Like-named read-outs stand apart in the source and are kept apart here.

Tests used:
[1] = In vitro metabolism in monkey liver microsomes; format: in vitro ADME
Source text: In vitro metabolism of prostratin was investigated using mouse, rat, monkey, and human liver microsomes (Gentest). […] Attempts to identify the metabolite by LC/MS/MS were unsuccessful due to the low amounts present in the reaction mixtures (FIG. 1).

[2] = In vivo rat bone marrow micronucleus assay; parameters: species or system CD® (SD) IGS BR rat; conditions: CD (SD) IGS BR, rat, in vivo, once by oral gavage, dose range-finding study, read-out: maximum tolerated dose
Method: (§1) The objective of this study was to evaluate the test article, prostratin, for in vivo clastogenic activity and/or disruption of the mitotic apparatus by detecting micronuclei in polychromatic erythrocytes (PCE) in CD® (SD) IGS BR rat bone marrow.
(§2) In the dose range-finding study, the test article was dissolved in ethanol followed by dilution with 0.9% Sodium Chloride for Injection to achieve a final ethanol:saline vehicle (0.8:99.2 v/v) at the appropriate dosing concentrations. The formulations were administered once by oral gavage to three males and three females per dose level. The animals were dosed at 0.4, 0.5, 2, or 5 mg/kg and observed for up to 2 days after dosing for toxic signs and/or mortality.
(§3) Based on the results of the dose range-finding study, the maximum tolerated dose was estimated to be 2.4 mg/kg in the male animals and 2 mg/kg in the female animals. In the micronucleus assay, the test article was dissolved in ethanol followed by dilution with 0.9% Sodium Chloride for Injection to achieve a final ethanol:saline vehicle (0.8:99.2 v/v) at the appropriate dosing concentrations.
(§4) Bone marrow was extracted and at least 2000 PCEs per animal were analyzed for the frequency of micronuclei. Cytotoxicity was assessed by scoring the number of PCEs and normochromatic erythrocytes (NCEs) in at least the first 500 total erythrocytes for each animal.

[3] = system: polychromatic erythrocytes (PCE) in CD® (SD) IGS BR rat bone marrow; test: In vivo rat bone marrow micronucleus assay
Method: as §1, §2, §3, §4

[4] = system: cultured human peripheral blood lymphocytes; test: Chromosomal aberrations in cultured human peripheral blood lymphocytes; format: cell-based
Method: The objective of this in vitro assay was to evaluate the ability of prostratin to cause structural chromosomal aberrations in cultured human lymphocytes with and without an exogenous metabolic activation system.
Dimethylsulfoxide (DMSO) was the vehicle of choice for this study. […] The stock solution and its dilutions were dosed using a dosing volume of 1% (10 μL/ml) and the vehicle control cultures were treated with 10.0 μL/ml of DMSO.
In the initial chromosomal aberrations assay, the treatment period was for 3 hours with and without metabolic activation, and cultures were harvested ˜22 hours from the initiation of treatment. Replicate cultures of human whole blood lymphocytes were incubated with test article at 23.7, 33.9, 48.4, 69.2, 98.9, 141, 202, 288, 412, 588, 840, 1200, 1720, 2450, and 3500 μg/ml with and without metabolic activation. Cultures treated with concentrations of 412, 588, 840, and 1200 μg/ml without metabolic activation and 588, 840, 1200, and 1720 μg/ml with metabolic activation were analyzed for chromosomal aberrations.
In the confirmatory chromosomal aberrations assay, the treatment period was ˜22 hours without metabolic activation and 3 hours with metabolic activation, and cultures were harvested ˜22 hours from the initiation of treatment. Replicate cultures of human whole blood lymphocytes were incubated with test article at 15.6, 31.3, 62.5, 125, 188, 250, 375, 500, 750, 1000, 1400, and 1700 μg/ml without metabolic activation and 250, 500, 1000, 1400, 1700, 2000, and 2500 μg/ml with metabolic activation. Cultures treated with concentrations of 125, 250, 500, and 1400 μg/ml without metabolic activation and 1400, 1700, 2000, and 2500 μg/ml with metabolic activation were analyzed for chromosomal aberrations.
For all treatment conditions, the vehicle and negative control cultures were within the expected range and the historical control data and the positive control cultures induced significant increases in chromosomal aberrations.

rats = test: Tolerability of intravenous infusion and oral doses in rats; format: in vivo
Method: In order to find out the best route of administration and the correct concentration of prostratin, the drug was administered as an intravenous infusion over three hours as well as a single and twice oral administration to 3 groups of rats. The goal of this experiment was to find out if greater amounts of prostratin can be administered over a longer period of time. This would enable obtaining median higher concentrations in the blood for a longer period of time that would be close to effective concentration found in in vitro studies.
The oral doses were estimated based on a maximum tolerated i.v. dose of 0.4 mg/kg from the DART work in rats, but an oral bio-availability of only 29%. Thus, the maximum tolerated i.v. dose was multiplied by three (i.e., 0.4 mg/kg times 3 equals 1.2 mg/kg as the equivalent oral dose). The purpose of the two lower oral doses (both 0.8 mg/kg, therefore a total of 1.6 mg/kg) and the infusion (0.8 mg/kg over three hours) was to see if the maximum tolerated dose could be exceeded by dividing up the oral into two times 75% the max tolerated dose or as an infusion over 3 hours.

[5] = Stability of prostratin in mouse plasma; format: in vitro ADME; conditions: 24 hr incubation at 37° C.
Method: Prostratin is stable in plasma and buffer as well as in the stability formulation (see below) developed for in vivo studies in mice. Stability tests for prostratin in mouse and monkey plasma were done using two concentration (1 and 10 mg/ml) and two temperatures (Room Temperature (RT) and 37° C.). The only loss of drug occurred in mouse plasma after 24 hr incubation at 37° C. This represented only 14% decrease in parent drug peak area over this time frame. Prostratin is stable in PBS (phosphate buffer saline) at pH 2 and pH 7.

CC(=O)O[C@@]12C[C@@H](C)[C@@]3(O)[C@@H](C=C(CO)C[C@]4(O)C(=O)C(C)=C[C@@H]34)[C@@H]1C2(C)C [prostratin, 12-deoxyphorbol 13-acetate]
metabolism (time-dependent loss of parent compound) [1]: greatest
MTD ([2]; female rats): 2 mg/kg
MTD ([2]; male rats): 2.4 mg/kg
micronucleated PCEs ([3]; 0.5, 1, or 2 mg/kg for females, 0.6, 1.2, and 2.4 mg/kg for males): did not induce statistically significant increases
cytotoxicity to the bone marrow (PCE:NCE ratios) ([3]; any dose of the test article): not cytotoxic
clinical observations ([3]; female animals, 2 mg/kg, approximately one hour post-dose, mortality, irregular respiration, piloerection, and/or recumbency): signs of clinical toxicity
rat bone marrow micronucleus assay, overall ([3]; rat, in vivo): negative
cells with chromosomal aberrations, polyploidy, or endoreduplication ([4]; confirmatory assay, ~22 hours without and 3 hours with metabolic activation, 125-1400 μg/ml without, 1400-2500 μg/ml with): No significant increase
cells with chromosomal aberrations, polyploidy, or endoreduplication ([4]; initial assay, 3 hours with and without metabolic activation, 412-1200 μg/ml without, 588-1720 μg/ml with): No significant increase
induction of chromosomal aberrations, overall ([4]; without and with an exogenous metabolic activation system): negative
Results (tolerability) (rats; female rats, 0.8 mg/kg I.V. infusion, 3 hours): All animals died
Results (tolerability) (rats; female rats, 1.2 mg/kg, one oral dose): 2 out of 3 animals died
Results (tolerability) (rats; female rats, 1.8 mg/kg first oral dose followed by 1.0 mg/kg after 4 hours): 2 died after first dose,
Results (tolerability) (rats; male rats, 1.8 mg/kg, two oral doses 4 hours apart): All animals are alive
Results (tolerability) (rats; male rats, 2.4 mg/kg, one oral dose): All animals are alive
decrease in parent drug peak area [5]: 14%
